Reference: patent US20210038589A1, “USES, COMPOSITIONS AND METHODS” (priority 2018, published 2021)

Columns and labels:
[1] = system: gamma oscillations in mouse hippocampal slices; experiment: Rescue of gamma oscillations previously degraded by Aβ in hippocampal slices (submerged chamber); assay type: cell-based; details: 5 μM compound applied after 20 min of 1 μM Aβ, Aβ still present
Experimental: Hippocampal slices were placed in a submerged recording chamber where gamma oscillations were induced by bath perfusion of 100 nM KA and allowed to stabilize for 20-30 min. Continuous recordings of LFP gamma oscillations were performed in 4 different conditions (FIG. 5). All groups were initially activated with Kainate. In a control group of slices oscillations were recorded for 40 min after stabilization without any other compound addition (control, n=5, grey). All other groups were perfused with 1 μM Aβ after stabilization of the oscillations for a minimum of 20 min. For these experiments the concentration of Aβ applied was increased to 1 μM in order to overcome the method-dependent lower signal amplitude due to the submerged recording conditions (8).
Hippocampal slices were placed on a submerged recording chamber where gamma oscillations were induced by bath perfusion of 100 nM Kainate and allowed to stabilize for 20-30 minutes. Continuous recordings of LFP gamma oscillations were performed in 3 different conditions. All groups were initially activated with kainate. In a control group of slices oscillations were recorded for 40 minutes after their stabilization without any other compound addiction (control, n=5; see FIG. 5). All the other groups were perfused with Aβ 1 μM after the stabilization of the oscillations for a minimum of 20 minutes.

[2] = system: hippocampal CA3 pyramidal cells; experiment: Patch-clamp EPSC/IPSC recordings after Aβ; assay type: cell-based, mouse; details: 5 μM, after 1 μM Aβ, 100 nM KA
Experimental: In this study, we recorded spontaneous synaptic activity in hippocampal CA3 pyramidal cells activated with 100 nM KA (20 min) in a submerged recording chamber. […] In contrast to its action on EPSCs, application of Aβ resulted, as previously shown, in decreased GABA receptor mediated IPSCs (FIG. 6D). […] Patch-clamp (whole-cell) recordings were performed from visually identified CA3 PC using The SliceScope (Scientifica, UK). Action Potentials (APs) were recorded from pyramidal cells in area CA3 as single units (submerged chamber) using standard ACSF-containing patch electrodes. For EPSC recordings (Vh=-70 mV) a potassium-based intracellular solution was used (in mM): 122.5 K-gluconate, 17.5 KCl, 4 […], 0.2 EGTA, 2 MgCl, set to pH 7.2-7.3 with KOH, osmolarity 270-280 mOsm. For IPSC recordings (Vh=0 mV) a cesium-based intracellular solution was used (in mM): 140 CsMeSO4, 10 HEPES, 0.2 […]-314, set to pH 7.2-7.4 with CsOH, osmolarity 270-280 mOsm. EPSCs and IPSCs were detected off-line using MiniAnalysis software (Synaptosoft, Decatur, Ga., USA). Charge transfer, event amplitude and inter-event-interval (IEI) were analyzed using Microsoft Excel for Mac 2011 (Microsoft Office) and GraphPad Prism (GraphPad Software, USA) with the result representing average values taken over 1 min periods.

[3] = system: Drosophila melanogaster model expressing pan-neuronally human Aβ1-42 peptide; experiment: Negative geotaxis climbing assay in Aβ-expressing Drosophila; details: for individuals reached the top of the climbing column: ElavArc2E flies, 5 μM in food from day 1 after hatching
Experimental: The data shown represent results from a cohort of flies tested every 10 days for 35 days. Data are presented as average±SEM. Results were tested for significance using ANOVA with Bonferroni Post Test to compare all different groups. […] Viable flies were counted daily to assess differences in longevity between wild type and experimental flies and between experimental not treated or treated with the compounds. […] Briefly, flies display a negative geotaxis response when given a mechanical stimulus. When tapped to the bottom of a vial, flies normally orient themselves rapidly and begin to climb to the top. […] FIG. 11A). […] Approximately 10 flies were placed in an empty plastic vial. The vial was gently tapped to knock the flies to the bottom and the flies were recorded during their subsequent climbing to the top of the vial (negative geotaxis). […] The data shown represent results from a cohort of flies tested every 10 days for 35 days.

SMILES	gamma power after treatment application, relative to Aβ [1]	rescue of Aβ induced increase in EPSCs frequency, amplitude and charge transfer [2]	rescue of Aβ-induced decrease in IPSCs (frequency, amplitude, charge transfer) [2]	individuals reached the top of the climbing column ([3]; at 5 days) [%]	individuals reached the top of the climbing column ([3]; at 15 days) [%]	individuals reached the top of the climbing column ([3]; at 25 days) [%]	effect of the drug on control strains in the behavioural test ([3]; control fly strains given the drug)
OC1(c2ccc(Cl)c(C(F)(F)F)c2)CCN(CCCC(c2ccc(F)cc2)c2ccc(F)cc2)CC1 [Penfluridol]	2.29±0.38 of Aβ	completely rescued	neither Pimozide nor Penfluridol were able to rescue				
O=c1[nH]c2ccccc2n1C1CCN(CCCC(c2ccc(F)cc2)c2ccc(F)cc2)CC1 [Pimozide]				97.4±0.3	83.2±0.6	38.3±0.5	no adverse effect
